Measurements published in US12291501B2 (University of Florida Research Foundation, Inc., priority 2021, dated 2025).
“And” between values parts separate entries of the source, which are not always exact repeats. Equal entries are not always repeated. “Also recorded” adds a separate entry of the source.

Assays:
Assay type in all cases: cell-based
[1] = molecular target: T1, α1β1εδ nAChR (Mus musculus, UniProt P02716+P04756+P09690+P20782); experiment: Inhibition of control ACh responses by co-application, muscle α1β1εδ nAChR in oocytes; conditions: 3 μM compound co-applied with ACh; fraction of control ACh response
T1 construct: expressed in transfected cells; host or cells: Xenopus laevis oocytes
Description: (§1) Initial profiling against heteromeric receptors: The test compounds for their ability to activate or inhibit other nAChR subtypes were evaluated. Agonist activity was evaluated by applying the compounds at 100 or 30 μM to human α4β2 and α3β4 as well as to mouse muscle α1β1εδ nAChR expressed in Xenopus oocytes. […] The inhibitory activity was generally low (Table 3).
(§2) Molecular Biology: Plasmid DNAs encoding the human α7 and heteromeric nAChR were obtained from Jon Lindstrom (University of Pennsylvania, Philadelphia, PA). Mouse muscle subunit clones were obtained from Jim Boulter (Salk Institute, La Jolla CA) and Paul Gardner (Dartmouth, Hanover NH). The human resistance-to-cholinesterase 3 ([…]) clone was obtained from Millet Treinin (Hebrew University, Jerusalem, Israel) and RNA co-injected with α7 to improve the level and speed of receptor expression without affecting their pharmacological properties. Plasmid DNA encoding the human α10 nAChR was obtained from J. Michael McIntosh. Plasmid DNA encoding the human α9 nAChR and the human receptor-associated protein of the synapse (RAPSYN) with codon optimization for expression in Xenopus laevis were obtained from Katrin Richter. RAPSYN RNA was co-injected with the α9 and α10 to improve expression (Richter et al., (2022) Front. Cell Neurosci. 16: 779081). After linearization and purification of the plasmid DNAs, RNAs were prepared using the mMessage mMachine in vitro RNA transcription kit (Ambion, Austin, TX). Frogs were maintained in the Animal Care Service facility of the University of Florida, and all procedures were approved by the University of Florida Institutional Animal Care and Use Committee (approval number 202002669). In brief, the animals were first anesthetized for 15-20 min in 1.5 l frog tank water containing 1 g of MS-222 buffered with sodium bicarbonate. Oocytes were obtained surgically from mature female Xenopus laevis (Nasco, Ft. Atkinson WI, USA) and treated with 1.4 mg/ml type 1 collagenase (Worthington Biochemicals, Freehold NJ, USA) for 2-4 h at rt in Ca2+-free Barth's solution (88 mM NaCl, 1 mM KCl, 2.38 mM NaHCO3, 0.82 mM MgSO4, 15 mM HEPES, and 12 mg/l tetracycline, pH 7.6) to remove the ovarian tissue and the follicular layers. Stage V oocytes were injected with 4-6 ng CHRNA7 RNA and 2-3 ng RIC3 RNA (2:1 ratio) in 50 nl water, or with 12 ng CHRNA9 RNA and 3 ng RAPSN RNA, or along with 12 ng CHRNA10 RNA in 50 nl water. Oocytes were maintained in Barth's solution containing 0.32 mM Ca(NO3)2 and 0.41 mM CaCl2, and recordings were conducted 2-20 days after injection.
(§3) Electrophysiology: Two-electrode voltage-clamp experiments were conducted using OpusXpress 6000A (Molecular Devices, Union City CA, USA). Both the voltage and current electrodes were filled with 3 M KCl. Oocytes were voltage-clamped at −60 mV at rt. The oocytes were perfused with Ringer's solution (115 mM NaCl, 2.5 mM KCl, 1.8 mM CaCl2, 10 mM HEPES, 1 μM atropine, pH 7.2) at 2 ml/min. […] Drug applications were 12 s in duration followed by 181 s washout periods.
(§4) The responses were calculated as both peak-current amplitudes and net charge. Data were collected at 50 Hz, filtered at 20 Hz, and analyzed by Clampfit (Molecular Devices) and Excel (Microsoft, Redmond, WA, United States). Data are expressed as means±SEM from at least five oocytes for each experiment and plotted with Kaleidagraph 4.5.2 (Abelbeck Software, Reading, PA, United States). Each episode of data acquisition was a total of 210 s and included an initial 30 s period used to define the baseline for the drug-evoked responses. After 30 s, drugs were applied, and the following 120 s were defined as the drug response period for analysis. […] The values for the curve fits were generated using the Levenberg-Marquardt algorithm to obtain the best Chi-Square fit to the Hill equation using the Kaleidagraph 4.5.2 plotting program. The errors in the tables are the calculated standard errors of the fit parameters based on the goodness of fit.

[2] = molecular target: T2, α4β2 nAChR (Homo sapiens, UniProt P17787+P43681); experiment: Inhibition of control ACh responses by co-application, α4β2 nAChR in oocytes; conditions: 3 μM compound co-applied with ACh; fraction of control ACh response
T2 construct: expressed in transfected cells; host or cells: Xenopus laevis oocytes
Description: as §1, §2, §3, §4

[3] = molecular target: T3, α7 nAChR (Homo sapiens, UniProt P36544); experiment: Two-electrode voltage-clamp, agonist concentration-response, α7 nAChR in Xenopus oocytes; conditions: for EC50 / α7 Imax: net charge, ± standard error of fit; for α7 Imax: relative to ACh (Imax = 1)
T3 construct: expressed in transfected cells; host or cells: Xenopus laevis oocytes, injected with in vitro transcribed RNA
Source text: (§5) Electrophysiology: Xenopus oocytes were microinjected with RNAs to produce functional nAChR which were characterized by two-electrode voltage-clamp measurements. FIGS. 5A-7D present concentration-response curves for the new compounds evaluated with α7, α9, and α9α10 receptors. Table 1 presents the values for Imax and EC50 with these receptors and Table 2 summarizes inhibition data for the compounds with heteromeric nAChR.
(§6) Molecular Biology: Plasmid DNAs encoding the human α7 and heteromeric nAChR were obtained from Jon Lindstrom (University of Pennsylvania, Philadelphia, PA). Mouse muscle subunit clones were obtained from Jim Boulter (Salk Institute, La Jolla CA) and Paul Gardner (Dartmouth, Hanover NH). […] Plasmid DNA encoding the human α10 nAChR was obtained from J. Michael McIntosh. Plasmid DNA encoding the human α9 nAChR and the human receptor-associated protein of the synapse (RAPSYN) with codon optimization for expression in Xenopus laevis were obtained from Katrin Richter. […] After linearization and purification of the plasmid DNAs, RNAs were prepared using the mMessage mMachine in vitro RNA transcription kit (Ambion, Austin, TX). […] Oocytes were maintained in Barth's solution containing 0.32 mM Ca(NO3)2 and 0.41 mM CaCl2, and recordings were conducted 2-20 days after injection.
(§7) Electrophysiology: Two-electrode voltage-clamp experiments were conducted using OpusXpress 6000A (Molecular Devices, Union City CA, USA). Both the voltage and current electrodes were filled with 3 M KCl. Oocytes were voltage-clamped at −60 mV at rt.
as §4

[4] = molecular target: T4, α9 nAChR (Homo sapiens, UniProt Q9UGM1); experiment: Two-electrode voltage-clamp, agonist concentration-response, α9 nAChR in Xenopus oocytes; conditions: for α9 Imax: relative to ACh (Imax = 1)
T4 construct: expressed in transfected cells; host or cells: Xenopus laevis oocytes, injected with in vitro transcribed RNA
Source text: as §5, §2, §3
as §4, with “The errors in the tables are the calculated standard errors of the fit parameters based on the goodness of fit.” left out

[5] = molecular target: T5, α3β4 nAChR (Homo sapiens, UniProt P30926+P32297); experiment: Inhibition of control ACh responses by co-application, α3β4 nAChR in oocytes; conditions: 3 μM compound co-applied with ACh; fraction of control ACh response
T5 construct: expressed in transfected cells; host or cells: Xenopus laevis oocytes
Description: as §1, §2, §3, §4

[6] = molecular target: T3, α7 nAChR; experiment: α7 responses to drugs co-applied with the PAM PNU-120596 (silent agonism); conditions: for Response co-applied with PNU-120596, normalized to ACh co-applied with PNU-120596: drug 30 μM + 10 μM PNU-120596, normalized to 30 μM ACh + 10 μM PNU-120596
Source text: as §6, §7, §4

[7] = molecular target: T6, α9α10 nAChR (Homo sapiens, UniProt Q9GZZ6+Q9UGM1); experiment: Two-electrode voltage-clamp, agonist concentration-response, α9α10 nAChR in Xenopus oocytes; conditions: for α9α10 Imax: relative to ACh (Imax = 1)
T6 construct: expressed in transfected cells; host or cells: Xenopus laevis oocytes, injected with in vitro transcribed RNA
Source text: as §5, §2, §3
as §4, with “The errors in the tables are the calculated standard errors of the fit parameters based on the goodness of fit.” left out

[8] = peak currents, ± standard error of fit

T6 sequence (Q9UGM1 26-479 limits assumed): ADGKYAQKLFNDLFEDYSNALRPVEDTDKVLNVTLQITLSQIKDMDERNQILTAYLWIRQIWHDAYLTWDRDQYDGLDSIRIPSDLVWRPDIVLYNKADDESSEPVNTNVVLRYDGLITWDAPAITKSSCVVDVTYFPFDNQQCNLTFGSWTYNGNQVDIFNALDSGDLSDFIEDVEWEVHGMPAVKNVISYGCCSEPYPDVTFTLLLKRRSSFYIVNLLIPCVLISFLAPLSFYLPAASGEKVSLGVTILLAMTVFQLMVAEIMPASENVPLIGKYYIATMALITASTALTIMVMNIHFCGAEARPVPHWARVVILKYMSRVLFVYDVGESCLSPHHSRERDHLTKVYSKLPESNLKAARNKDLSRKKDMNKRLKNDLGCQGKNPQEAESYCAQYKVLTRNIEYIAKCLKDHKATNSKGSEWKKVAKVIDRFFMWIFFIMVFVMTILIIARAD
T6 sequence (Q9GZZ6 25-450): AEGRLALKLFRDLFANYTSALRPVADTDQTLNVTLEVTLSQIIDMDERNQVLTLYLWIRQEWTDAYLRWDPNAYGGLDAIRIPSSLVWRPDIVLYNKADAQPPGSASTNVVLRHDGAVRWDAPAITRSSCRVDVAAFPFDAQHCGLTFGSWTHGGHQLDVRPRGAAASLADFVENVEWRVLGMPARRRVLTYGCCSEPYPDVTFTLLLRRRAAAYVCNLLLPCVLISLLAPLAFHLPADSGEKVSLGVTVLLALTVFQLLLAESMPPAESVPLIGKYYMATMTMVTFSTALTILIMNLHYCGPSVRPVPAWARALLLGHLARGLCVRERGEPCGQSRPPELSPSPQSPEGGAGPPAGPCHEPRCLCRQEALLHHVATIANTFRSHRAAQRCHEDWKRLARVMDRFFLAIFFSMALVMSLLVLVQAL
T4 sequence (Q9UGM1 26-479 limits assumed): as the sequence (Q9UGM1 26-479 limits assumed) above
T2 sequence (P43681 29-627 limits assumed): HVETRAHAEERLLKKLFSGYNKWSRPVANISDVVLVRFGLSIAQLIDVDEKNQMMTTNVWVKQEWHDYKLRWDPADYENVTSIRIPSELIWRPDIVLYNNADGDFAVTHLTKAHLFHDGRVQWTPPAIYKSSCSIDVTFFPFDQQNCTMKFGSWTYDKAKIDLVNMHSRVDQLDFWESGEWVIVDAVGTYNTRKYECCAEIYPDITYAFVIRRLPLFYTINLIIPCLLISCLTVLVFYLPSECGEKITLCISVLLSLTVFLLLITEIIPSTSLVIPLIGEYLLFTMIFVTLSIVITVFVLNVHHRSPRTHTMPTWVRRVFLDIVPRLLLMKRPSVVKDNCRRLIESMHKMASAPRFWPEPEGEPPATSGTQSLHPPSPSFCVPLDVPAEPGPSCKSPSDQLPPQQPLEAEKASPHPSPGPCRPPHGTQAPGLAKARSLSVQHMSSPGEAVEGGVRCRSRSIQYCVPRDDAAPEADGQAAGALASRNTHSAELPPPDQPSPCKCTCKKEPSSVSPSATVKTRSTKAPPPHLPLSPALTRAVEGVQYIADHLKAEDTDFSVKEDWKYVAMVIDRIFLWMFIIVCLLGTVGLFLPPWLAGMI
T2 sequence (P17787 26-502): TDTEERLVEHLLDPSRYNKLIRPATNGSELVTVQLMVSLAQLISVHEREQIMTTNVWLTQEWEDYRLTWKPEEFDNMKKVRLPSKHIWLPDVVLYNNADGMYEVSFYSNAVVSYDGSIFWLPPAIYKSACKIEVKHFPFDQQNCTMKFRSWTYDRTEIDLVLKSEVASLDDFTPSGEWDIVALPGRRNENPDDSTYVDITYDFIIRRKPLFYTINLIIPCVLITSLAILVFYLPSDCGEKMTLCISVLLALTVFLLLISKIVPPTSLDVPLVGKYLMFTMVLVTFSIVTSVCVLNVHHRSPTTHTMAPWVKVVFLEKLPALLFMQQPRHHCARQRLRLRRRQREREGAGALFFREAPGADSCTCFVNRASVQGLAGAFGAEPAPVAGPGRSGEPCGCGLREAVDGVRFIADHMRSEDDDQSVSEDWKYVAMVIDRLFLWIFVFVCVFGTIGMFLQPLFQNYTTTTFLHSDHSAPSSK
T1 sequence (P04756 21-457): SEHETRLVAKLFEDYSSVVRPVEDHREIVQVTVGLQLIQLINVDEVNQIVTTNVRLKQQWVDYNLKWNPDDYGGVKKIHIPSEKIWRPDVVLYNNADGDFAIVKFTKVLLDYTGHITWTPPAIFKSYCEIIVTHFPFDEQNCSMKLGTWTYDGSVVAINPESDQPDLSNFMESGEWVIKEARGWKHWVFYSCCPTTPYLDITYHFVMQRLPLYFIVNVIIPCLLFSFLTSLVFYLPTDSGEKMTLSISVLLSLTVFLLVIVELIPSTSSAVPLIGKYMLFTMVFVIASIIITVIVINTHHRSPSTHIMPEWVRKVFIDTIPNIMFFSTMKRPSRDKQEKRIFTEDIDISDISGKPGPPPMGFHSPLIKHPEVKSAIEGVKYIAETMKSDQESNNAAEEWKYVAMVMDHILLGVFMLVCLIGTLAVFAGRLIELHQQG
T1 sequence (P09690 24-501): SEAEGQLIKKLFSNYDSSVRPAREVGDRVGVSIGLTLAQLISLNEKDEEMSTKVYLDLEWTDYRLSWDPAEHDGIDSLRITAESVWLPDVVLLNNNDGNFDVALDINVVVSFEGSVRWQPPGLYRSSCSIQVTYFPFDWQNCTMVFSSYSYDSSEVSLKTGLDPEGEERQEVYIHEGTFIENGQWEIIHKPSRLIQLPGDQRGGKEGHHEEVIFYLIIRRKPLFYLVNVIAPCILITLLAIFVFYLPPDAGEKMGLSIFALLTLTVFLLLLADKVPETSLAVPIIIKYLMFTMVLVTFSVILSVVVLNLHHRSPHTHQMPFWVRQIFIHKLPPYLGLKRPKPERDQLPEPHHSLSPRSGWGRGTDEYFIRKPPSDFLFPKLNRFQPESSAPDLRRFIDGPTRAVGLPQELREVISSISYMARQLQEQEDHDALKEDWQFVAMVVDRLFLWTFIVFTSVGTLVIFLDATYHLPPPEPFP
T1 sequence (P20782 21-493): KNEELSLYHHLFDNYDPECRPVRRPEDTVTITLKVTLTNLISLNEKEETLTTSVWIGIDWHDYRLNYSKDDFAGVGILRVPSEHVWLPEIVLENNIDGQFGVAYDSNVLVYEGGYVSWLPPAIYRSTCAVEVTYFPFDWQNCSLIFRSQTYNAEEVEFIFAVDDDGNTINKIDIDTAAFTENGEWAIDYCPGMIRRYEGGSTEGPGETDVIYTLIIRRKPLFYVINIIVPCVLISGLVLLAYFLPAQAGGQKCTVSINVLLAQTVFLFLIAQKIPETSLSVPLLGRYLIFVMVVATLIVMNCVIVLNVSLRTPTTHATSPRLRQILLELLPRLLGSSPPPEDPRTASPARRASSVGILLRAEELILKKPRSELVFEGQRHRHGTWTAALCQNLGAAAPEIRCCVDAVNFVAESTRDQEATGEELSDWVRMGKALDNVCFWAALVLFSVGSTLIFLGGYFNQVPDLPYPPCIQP
T1 sequence (P02716 25-520): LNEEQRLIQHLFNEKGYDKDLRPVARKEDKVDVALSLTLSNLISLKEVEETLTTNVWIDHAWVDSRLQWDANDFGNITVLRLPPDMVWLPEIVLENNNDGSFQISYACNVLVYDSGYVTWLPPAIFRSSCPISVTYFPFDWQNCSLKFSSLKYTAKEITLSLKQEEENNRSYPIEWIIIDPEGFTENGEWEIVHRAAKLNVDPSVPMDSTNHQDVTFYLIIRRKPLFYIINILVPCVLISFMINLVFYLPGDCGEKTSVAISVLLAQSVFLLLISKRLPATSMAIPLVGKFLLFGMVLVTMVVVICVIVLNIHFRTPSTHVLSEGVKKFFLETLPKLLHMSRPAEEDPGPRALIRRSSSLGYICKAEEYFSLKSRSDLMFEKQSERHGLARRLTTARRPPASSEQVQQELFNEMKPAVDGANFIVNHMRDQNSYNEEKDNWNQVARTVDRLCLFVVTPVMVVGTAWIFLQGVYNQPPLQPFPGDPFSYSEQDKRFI
T5 sequence (P32297 32-505): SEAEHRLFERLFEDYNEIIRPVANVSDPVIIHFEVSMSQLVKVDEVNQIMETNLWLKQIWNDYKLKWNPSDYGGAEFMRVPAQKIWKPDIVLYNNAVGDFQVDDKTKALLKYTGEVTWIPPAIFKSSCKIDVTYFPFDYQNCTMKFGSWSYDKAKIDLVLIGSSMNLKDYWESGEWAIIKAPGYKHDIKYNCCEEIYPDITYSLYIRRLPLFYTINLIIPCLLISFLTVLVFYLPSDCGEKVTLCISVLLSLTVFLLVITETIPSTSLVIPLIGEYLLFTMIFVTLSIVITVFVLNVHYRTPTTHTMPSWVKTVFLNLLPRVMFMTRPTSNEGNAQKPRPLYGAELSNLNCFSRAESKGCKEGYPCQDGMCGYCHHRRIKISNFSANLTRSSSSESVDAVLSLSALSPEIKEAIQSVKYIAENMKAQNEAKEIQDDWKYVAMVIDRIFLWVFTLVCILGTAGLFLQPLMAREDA
T5 sequence (P30926 22-498): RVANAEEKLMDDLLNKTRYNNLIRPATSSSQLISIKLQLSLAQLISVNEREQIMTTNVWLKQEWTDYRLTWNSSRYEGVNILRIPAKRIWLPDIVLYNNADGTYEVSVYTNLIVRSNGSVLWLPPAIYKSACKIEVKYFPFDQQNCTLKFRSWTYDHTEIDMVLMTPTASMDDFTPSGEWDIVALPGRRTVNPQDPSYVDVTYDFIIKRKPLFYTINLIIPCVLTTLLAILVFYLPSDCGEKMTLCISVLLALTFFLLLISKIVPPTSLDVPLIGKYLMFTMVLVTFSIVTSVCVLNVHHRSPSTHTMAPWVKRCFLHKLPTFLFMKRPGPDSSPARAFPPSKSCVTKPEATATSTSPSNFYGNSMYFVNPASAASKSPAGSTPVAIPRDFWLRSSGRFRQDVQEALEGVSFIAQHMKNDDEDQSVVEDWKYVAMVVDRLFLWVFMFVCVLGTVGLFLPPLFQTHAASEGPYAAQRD

| SMILES | Effect of co-application on the control ACh responses, α1β1εδ [1] | Effect of co-application on the control ACh responses, α4β2 [2] | Agonist character / efficacy at α7 [3] | EC50 [3] [µM] | α7 Imax [3] | Agonist character / efficacy at α9 [4] | EC50 [4, 8] [µM] | α9 EC50 [4, 8] | α9 Imax [4, 8] | Effect of co-application on the control ACh responses, α3β4 [5] | Response co-applied with PNU-120596, normalized to ACh co-applied with PNU-120596 [6] | Agonist character / efficacy at α9α10 [7] | EC50 [7, 8] [µM] | α9α10 EC50 [7, 8] | α9α10 Imax [7, 8] | Fold better potency for α9α10 relative to α9 homomers ([7]; ratio of EC50 values) [fold] | Response co-applied with PNU-120596 relative to the ACh controls ([6]; 30 μM compound + 10 μM PNU-120596, relative to ACh alone controls) [times] |
| --- | --- | --- | --- | --- | --- | --- | --- | --- | --- | --- | --- | --- | --- | --- | --- | --- | --- |
| CC[N+]1(CC)CCN(c2ccc(-c3ncco3)cc2)CC1.[I-] [Compound 3g, 1,1-diethyl-4-(4-(oxazol-2-yl)phenyl)piperazin-1-ium iodide] | 0.353 ± 0.071 | 0.823 ± 0.043 | strongly diminished activity; also recorded: very weak partial agonists | 1.7 ± 0.4 | 0.12 ± 0.01 and 0.12 | full agonism; also recorded: full agonist | 0.38 ± 0.17 | submicromolar potency | 1.29±0.13 | 0.507 ± 0.032 | 0.05 | strong partial agonist | 0.7 ± 0.03 | submicromolar potency | 0.83±0.01 |  |  |
| CC[N+]1(CC)CCN(c2ccc(C(=O)Nc3ccccn3)cc2)CC1.[I-] [Compound 3c, 1,1-diethyl-4-(4-(pyridin-2-ylcarbamoyl)phenyl)piperazin-1-ium iodide] | 0.506 ± 0.082 | 0.697 ± 0.027 | partial agonists | 26 ± 20 | 0.46 ± 0.08 and 0.46 |  | 18 ± 36 |  | 1.18 ± 0.39 | 0.789 ± 0.057 | 0.12 | efficacious agonist | 1.18 ± 0.26 |  | 0.94 ± 0.04 | 10 |  |
| CC[N+]1(CC)CCN(c2ccc(-n3cccc3)cc2)CC1.[I-] [Compound 3i, 4-(4-(1H-pyrrol-1-yl)phenyl)-1,1-diethylpiperazin-1-ium iodide] | 0.691 ± 0.094 | 0.709 ± 0.086 | reduced efficacy | 27 ± 4 | 0.041 ± 0.002 and 0.041 | reduced efficacy; also recorded: weakened partial agonist | 1.12 ± 0.25 |  | 0.27 ± 0.01 | 0.387 ± 0.057 | 0.08 | weakened partial agonist | 1.5 ± 0.6 |  | 0.17 ± 0.01 |  | ~2 |
